This passage reports IC50 results from US20210070731A1, “TRICYCLIC KINASE INHIBITORS AND USE THEREOF” (priority 2019, published 2021).

Each structure is given as a SMILES string. Counter-ions that a name gives are not always drawn.

Type in all cases: biochemical
What all share (details): 100 uM ATP, 3 hr incubation, four-parameter fit

The target of one test is T1, CLK2 (Homo sapiens, UniProt P49760).
T1 construct: purchased SignalChem
The test is described as follows: Phosphorylation assay ([γ-32P]-ATP, P81 paper), CLK2. The text has this: (§1) Kinase activity and inhibition can be measured using binding assays as well as phosphorylation assays. In the binding assays, e.g. KinaseSeeker (Luceome Biotechnologies, Tucson, Ariz.) or Kinomescan (Eurofins), the competitive displacement of a kinase active site binding probe by a compound is detected and serves as a measure of compound inhibition. In phosphorylation assays, e.g. radioactivity assays or ADP-Glo (Promega) assays, the phosphorylation of a peptide or protein substrate is used to evaluate enzyme activity, and the reduction of phosphorylation in presence of a compounds serves as a measure of compound inhibition. The inhibitor compounds described herein are screened in the following manner.
(§2) For phosphorylation assays, 30 ng of the active kinase (SignalChem) in kinase assay buffer was incubated with either inhibitor in DMSO or DMSO (no inhibitor control). Reaction was started by the addition of 10 mM magnesium sulfate, 100 uM [γ-^32P]-ATP and appropriate concentration of the relevant peptide substrate. After 3 hr incubation, the reaction was terminated by spotting 25 μl of the reaction mixture onto P81 paper strips. The paper strips were air dried, washed three times with 0.85% phosphoric acid and finally with acetone. The P81 paper was immersed in 10 mL of scintillation cocktail, and the radioactive counts were measured. For dose dependent curves, kinases were treated at varying concentrations of the compound in activity assays and IC50 values were determined using a four-parameter fit. The IC50 values against a select set of kinases is given below.

The next test has as its target T2, CLK1 (Homo sapiens, UniProt P49759).
T2 construct: purchased SignalChem
The test is described as follows: Phosphorylation assay ([γ-32P]-ATP, P81 paper), CLK1.
Description: as §1, §2

For a further test, the target named is T3, SIK2 (Homo sapiens, UniProt Q9H0K1).
T3 construct: purchased SignalChem
T3 sequence (Q9H0K1 whole entry): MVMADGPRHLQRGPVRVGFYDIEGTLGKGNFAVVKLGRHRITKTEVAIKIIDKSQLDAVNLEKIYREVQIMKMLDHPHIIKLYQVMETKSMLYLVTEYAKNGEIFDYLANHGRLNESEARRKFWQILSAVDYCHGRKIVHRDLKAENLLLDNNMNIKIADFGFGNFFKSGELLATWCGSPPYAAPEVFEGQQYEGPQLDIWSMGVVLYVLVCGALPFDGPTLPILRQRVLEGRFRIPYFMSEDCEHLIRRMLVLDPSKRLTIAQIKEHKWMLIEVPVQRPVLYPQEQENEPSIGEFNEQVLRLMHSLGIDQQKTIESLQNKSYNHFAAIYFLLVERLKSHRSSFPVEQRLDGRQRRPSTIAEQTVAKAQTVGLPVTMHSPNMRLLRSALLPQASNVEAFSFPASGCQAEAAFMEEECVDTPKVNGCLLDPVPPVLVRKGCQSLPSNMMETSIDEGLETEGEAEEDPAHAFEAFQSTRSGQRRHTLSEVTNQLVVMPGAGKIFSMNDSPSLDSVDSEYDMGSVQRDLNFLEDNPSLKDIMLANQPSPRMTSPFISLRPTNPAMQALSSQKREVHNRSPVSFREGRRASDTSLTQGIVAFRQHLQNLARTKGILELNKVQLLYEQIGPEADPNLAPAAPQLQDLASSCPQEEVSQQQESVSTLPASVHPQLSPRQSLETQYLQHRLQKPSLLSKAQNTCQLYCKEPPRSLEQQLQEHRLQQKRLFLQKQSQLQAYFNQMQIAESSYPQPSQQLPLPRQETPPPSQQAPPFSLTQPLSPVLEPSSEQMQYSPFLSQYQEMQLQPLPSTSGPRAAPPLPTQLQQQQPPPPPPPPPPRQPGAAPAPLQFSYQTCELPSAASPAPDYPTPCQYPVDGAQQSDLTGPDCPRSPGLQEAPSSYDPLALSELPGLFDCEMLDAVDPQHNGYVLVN
In words: Phosphorylation assay ([γ-32P]-ATP, P81 paper), SIK2.
Description: as §1, §2

A further test has as its target T4, NUAK2 (Homo sapiens, UniProt Q9H093).
T4 construct: purchased SignalChem
T4 sequence (Q9H093 1-628): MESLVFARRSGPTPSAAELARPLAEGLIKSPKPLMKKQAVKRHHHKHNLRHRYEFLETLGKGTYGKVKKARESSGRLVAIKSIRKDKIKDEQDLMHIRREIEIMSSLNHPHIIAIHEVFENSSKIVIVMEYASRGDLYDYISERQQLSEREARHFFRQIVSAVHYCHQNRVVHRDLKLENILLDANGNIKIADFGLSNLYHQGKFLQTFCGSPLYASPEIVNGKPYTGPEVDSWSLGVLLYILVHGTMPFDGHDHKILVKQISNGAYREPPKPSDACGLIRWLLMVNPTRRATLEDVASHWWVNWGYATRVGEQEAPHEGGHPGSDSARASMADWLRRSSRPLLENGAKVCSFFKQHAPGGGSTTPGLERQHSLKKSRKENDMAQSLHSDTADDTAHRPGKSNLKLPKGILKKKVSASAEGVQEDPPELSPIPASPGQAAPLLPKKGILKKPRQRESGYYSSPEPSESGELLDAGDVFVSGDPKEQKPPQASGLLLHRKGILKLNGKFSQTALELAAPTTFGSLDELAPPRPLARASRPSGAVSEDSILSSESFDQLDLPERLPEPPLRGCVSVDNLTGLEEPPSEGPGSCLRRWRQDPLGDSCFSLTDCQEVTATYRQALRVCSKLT
In words: Phosphorylation assay ([γ-32P]-ATP, P81 paper), NUAK2.
Description: as §1, §2

In the next test the target is T5, NUAK1 (Homo sapiens, UniProt O60285).
T5 construct: purchased SignalChem
T5 sequence (O60285 1-661): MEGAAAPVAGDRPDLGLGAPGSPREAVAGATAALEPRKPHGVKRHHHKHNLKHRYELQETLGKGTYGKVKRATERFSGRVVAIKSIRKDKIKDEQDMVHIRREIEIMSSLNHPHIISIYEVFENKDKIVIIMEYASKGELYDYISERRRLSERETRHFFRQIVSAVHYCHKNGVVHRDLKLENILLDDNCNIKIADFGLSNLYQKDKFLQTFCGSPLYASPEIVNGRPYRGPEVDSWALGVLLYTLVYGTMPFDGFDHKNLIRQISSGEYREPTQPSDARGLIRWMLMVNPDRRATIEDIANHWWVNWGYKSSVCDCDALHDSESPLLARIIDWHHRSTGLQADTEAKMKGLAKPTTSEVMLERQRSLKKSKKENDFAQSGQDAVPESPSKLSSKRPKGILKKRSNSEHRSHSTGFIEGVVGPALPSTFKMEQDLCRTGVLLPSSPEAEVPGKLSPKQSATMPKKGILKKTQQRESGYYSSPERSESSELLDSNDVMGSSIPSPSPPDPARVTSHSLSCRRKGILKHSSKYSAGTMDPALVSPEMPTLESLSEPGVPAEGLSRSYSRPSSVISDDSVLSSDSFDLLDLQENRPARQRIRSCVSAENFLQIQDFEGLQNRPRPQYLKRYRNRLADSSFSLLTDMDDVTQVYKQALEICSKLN
In words: Phosphorylation assay ([γ-32P]-ATP, P81 paper), NUAK1.
Description: as §1, §2

T1 sequence (P49760 whole entry): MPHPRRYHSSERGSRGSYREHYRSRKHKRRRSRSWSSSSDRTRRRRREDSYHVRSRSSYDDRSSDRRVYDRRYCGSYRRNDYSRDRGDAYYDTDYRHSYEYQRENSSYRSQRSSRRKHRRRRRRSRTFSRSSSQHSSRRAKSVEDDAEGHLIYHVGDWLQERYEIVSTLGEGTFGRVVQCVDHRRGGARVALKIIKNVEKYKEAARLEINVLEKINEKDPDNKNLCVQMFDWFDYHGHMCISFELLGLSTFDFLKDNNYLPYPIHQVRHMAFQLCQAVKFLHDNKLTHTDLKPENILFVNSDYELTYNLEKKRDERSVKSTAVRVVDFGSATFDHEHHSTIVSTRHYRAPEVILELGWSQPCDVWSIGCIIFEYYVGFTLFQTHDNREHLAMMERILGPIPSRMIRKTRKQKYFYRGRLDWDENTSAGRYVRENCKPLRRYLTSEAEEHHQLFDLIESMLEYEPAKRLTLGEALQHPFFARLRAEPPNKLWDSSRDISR
T2 sequence (P49759 whole entry): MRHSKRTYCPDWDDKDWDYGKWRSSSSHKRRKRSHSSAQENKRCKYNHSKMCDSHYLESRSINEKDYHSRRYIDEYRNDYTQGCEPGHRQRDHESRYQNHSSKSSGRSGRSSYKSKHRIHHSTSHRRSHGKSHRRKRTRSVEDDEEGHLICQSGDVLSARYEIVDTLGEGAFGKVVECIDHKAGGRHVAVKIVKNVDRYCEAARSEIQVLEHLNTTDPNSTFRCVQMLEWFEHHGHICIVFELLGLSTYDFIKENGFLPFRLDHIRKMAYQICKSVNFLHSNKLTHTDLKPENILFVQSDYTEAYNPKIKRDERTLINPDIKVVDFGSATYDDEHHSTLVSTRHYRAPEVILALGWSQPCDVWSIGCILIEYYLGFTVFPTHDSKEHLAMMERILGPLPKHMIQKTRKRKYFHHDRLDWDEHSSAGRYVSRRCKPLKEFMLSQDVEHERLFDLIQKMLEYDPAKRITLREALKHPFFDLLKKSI

As usually defined, the IC50 is the concentration that inhibits the measured activity by half. Lower therefore signals greater potency in that assay. Consider `CN1Cc2ccccc2N(C)c2cc(Nc3ccn(C4CCNCC4)n3)ncc21` [Compound 14, 5,11-dimethyl-N-(1-(piperidin-4-yl)-1H-pyrazol-3-yl)-10,11-dihydro-5H-benzo[e]pyrido[3,4-b][1,4]diazepin-3-amine], for which the 50% inhibitory concentration (IC50) stood at 1.5 µM against CLK2; 2.7 µM against CLK1; 18.6 µM at SIK2; 4.6 µM against NUAK2; 1.3 µM against NUAK1.
On to `CN1Cc2cnc(Nc3ccn(C4CCNCC4)n3)cc2N(C)c2ccccc21` [Compound 24, 5,10-dimethyl-N-(1-(piperidin-4-yl)-1H-pyrazol-3-yl)-10,11-dihydro-5H-benzo[b]pyrido[4,3-e][1,4]diazepin-3-amine], for which the concentration for half-maximal inhibition (IC50) against CLK2 is 9.5 µM; on CLK1, more than 50 µM; on SIK2 it was 0.69 µM; against NUAK2, 7 µM; against NUAK1, 1.3 µM.
The corresponding values for `CN1C(=O)c2ccccc2N(C)c2cc(Nc3ccn(C4CCNCC4)n3)ncc21` [Compound 30, 5,11-dimethyl-3-((1-(piperidin-4-yl)-H-pyrazol-3-yl)amino)-5,11-dihydro-10H-benzo[e]pyrido[3,4-b][1,4]diazepin-10-one TFA Salt] are 33 µM, 57.8 µM, 1.5 µM, 0.34 µM and 0.13 µM.
